Test results: patent US11752120B2, “Use of succinic acid in increasing sensitivity of bacteria to antibiotics” (SUN YAT-SEN UNIVERSITY, priority 2018, dated 2023)

Key:
[1] = tested on: clinical Escherichia coli biofilm; assay: In vitro bactericidal assay of biofilm; assay type: cell-based; conditions: catheter biofilm, 6 hours; succinic acid 580 mg/kg; ampicillin 2000 mg/kg for YT16, 500 mg/kg for YT28
Procedure: […] of clinical Escherichia coli (YT3, YT11, YT12, YT16, YT17, YT21, YT22, YT23, YT28, YT33) were picked, monocloned into LB medium, and cultured overnight, then were transferred into 2 mL fresh LB medium at 1:200, and added with a 6 mm PE-50 biological catheter that was sterilized by UV, and cultured in a 37° C. incubator for culture for 24 hours. The bacterial solution was replaced with 1 mL of LB medium daily, and the catheter was continuously cultured for 3 days. The prepared biofilm was washed 5 times with 1 mL of sterile normal saline, and then placed in a 1.5 mL EP tube.
The assay was divided into 4 groups: normal saline control group, succinic acid group, ampicillin group, ampicillin+succinic acid group, and the catheters were treated in a shaker at 37° C. and 200 rpm. A dosage of succinic acid was 580 mg/kg, and a dosage of ampicillin was 2000 mg/kg for YT16, and 500 mg/kg for YT28. After 6 hours, ultrasonic cleaning was conducted for 15 minutes, the biofilm on the catheter was eluted and thoroughly mixed, and after gradient dilution, spot plate counting was performed. The formula for calculating the bacterial survival rate is: number of viable bacteria in each group/number of viable bacteria in the control group×100%.

E. coli K12 = assay: Minimum inhibitory concentration (MIC), NCCLS method, control strain; assay type: cell-based, Escherichia coli; conditions: no unit in table, MIC in μg/mL
Source text: (§1) Escherichia coli (E. coli) are one of the most common bacteria in the clinic. 30 strains of E. coli obtained from the clinic were named YT1-30. The minimum inhibitory concentrations (MIC) of 8 antibiotics against these 30 clinically obtained E. coli was detected according to the NCCLS method, and E. coli K12 was used as a control.

[2] = tested on: clinical Escherichia coli YT1-30; assay: Minimum inhibitory concentration (MIC), NCCLS method, 30 clinical strains; assay type: cell-based; design: Minimum inhibitory concentration (MIC): unit not given here
Source text: as §1

[3] = tested on: clinical Escherichia coli YT16 and YT28; assay: Viable bacteria count / survival rate after antibiotic with or without succinic acid in M9 medium; assay type: cell-based
Procedure: A single colony of clinical bacteria was picked from a solid LB plate and was inoculated in 5 mL LB liquid medium for culture at 37° C. and 200 rpm for 16 hours, and then was inoculated in 100 mL LB liquid medium at a ratio of 1:100 (v/v) and was cultured at 37° C. until OD600 value was 1.0. 20 mL of bacterial solution was collected and centrifuged at 8000 rpm for 5 minutes, the supernatant was cleared and bacterial cells were washed with an equal volume of 0.85% normal saline, and finally the bacterial cells were suspended with 1×M9 basic medium (containing 10 mM acetate), the OD value of the bacterial solution was adjusted to 0.5, and then 5 mL of the bacterial solution was aliquoted in a test tube for the following experimental studies.
The survival rates of the clinical bacteria in medium with adding succinic acid and without adding succinic acid at the same antibiotic concentration were compared.
The formula is the number of viable bacteria when different concentrations of succinic acid were added/the number of viable bacteria without adding succinic acid×100%.
In order to study whether clinical Escherichia coli has effect on penicillin antibiotics after adding succinic acid, two clinical Escherichia coli samples of YT16 and YT28 were prepared according to step 2 in Embodiment 1, 20 mM succinic acid and 3 kinds of penicillin were added respectively, […], the number of viable bacteria was counted, and the survival rate was calculated. […]

With `CC1(C)S[C@@H]2[C@H](NC(=O)[C@H](N)c3ccccc3)C(=O)N2[C@H]1C(=O)O` [Ampicillin] the “clearance of clinical Escherichia coli on the biofilms, used alone” value [1] was “cannot clear”, the “Minimum inhibitory concentration (MIC)” value (E. coli K12) was 6.1 and the “Minimum inhibitory concentration (MIC)” value ([2]; strain YT1) was 25000. For the same compound, the “Minimum inhibitory concentration (MIC)” value ([2]; strain YT2) was 6250, the “Minimum inhibitory concentration (MIC)” value ([2]; strain YT3) was 390.625 and the “Minimum inhibitory concentration (MIC)” value ([2]; strain YT4) was 6250. The “Minimum inhibitory concentration (MIC)” value ([2]; strain YT5) was 25000, the “Minimum inhibitory concentration (MIC)” value ([2]; strain YT6) was 1562.5 and the “Minimum inhibitory concentration (MIC)” value ([2]; strain YT7) was 1562.5. The “Minimum inhibitory concentration (MIC)” value ([2]; strain YT8) was 1562.5, the “Minimum inhibitory concentration (MIC)” value ([2]; strain YT9) was 1562.5 and the “Minimum inhibitory concentration (MIC)” value ([2]; strain YT10) was 6250. For the same compound, the “Minimum inhibitory concentration (MIC)” value ([2]; strain YT11) was 1562.5, the “Minimum inhibitory concentration (MIC)” value ([2]; strain YT12) was 6250 and the “Minimum inhibitory concentration (MIC)” value ([2]; strain YT13) was 6250. The “Minimum inhibitory concentration (MIC)” value ([2]; strain YT14) was 6250, the “Minimum inhibitory concentration (MIC)” value ([2]; strain YT15) was 6250 and the “Minimum inhibitory concentration (MIC)” value ([2]; strain YT16) was 6250. The “Minimum inhibitory concentration (MIC)” value ([2]; strain YT17) was 6250, the “Minimum inhibitory concentration (MIC)” value ([2]; strain YT18) was 6250 and the “Minimum inhibitory concentration (MIC)” value ([2]; strain YT19) was 1562.5. For the same compound, the “Minimum inhibitory concentration (MIC)” value ([2]; strain YT20) was 1562.5, the “Minimum inhibitory concentration (MIC)” value ([2]; strain YT21) was 1562.5 and the “Minimum inhibitory concentration (MIC)” value ([2]; strain YT22) was 6250. For the same compound, the “Minimum inhibitory concentration (MIC)” value ([2]; strain YT23) was 1562.5, the “Minimum inhibitory concentration (MIC)” value ([2]; strain YT24) was 6250 and the “Minimum inhibitory concentration (MIC)” value ([2]; strain YT25) was 6250. The “Minimum inhibitory concentration (MIC)” value ([2]; strain YT26) was 6250, the “Minimum inhibitory concentration (MIC)” value ([2]; strain YT27) was 6250 and the “Minimum inhibitory concentration (MIC)” value ([2]; strain YT28) was 1562.5. For the same compound, the “Minimum inhibitory concentration (MIC)” value ([2]; strain YT29) was 6250, the “Minimum inhibitory concentration (MIC)” value ([2]; strain YT30) was 25000 and the survival rate ([3]; YT16, 2.5 mg/mL ampicillin without adding succinic acid, 4 hours) was 61.04%. It also gave a survival rate ([3]; YT16, 5 mg/mL ampicillin without adding succinic acid, 4 hours) of 34.53%, a survival rate ([3]; YT16, 10 mg/mL ampicillin without adding succinic acid, 4 hours (FIG. 1)) of 25.99% and a survival rate ([3]; YT16, 10 mg/mL ampicillin without adding succinic acid, 4 hours (FIG. 3)) of 73.8%. For the same compound, the survival rate ([3]; YT16, 20 mg/mL ampicillin without adding succinic acid, 4 hours) was 12.47%, the survival rate ([3]; YT16, only 10 mg/mL ampicillin added, 1 hour (FIG. 2)) was 93.89% and the survival rate ([3]; YT16, only 10 mg/mL ampicillin added, 4 hours (FIG. 2)) was 47.34%. It also gave a survival rate ([3]; YT16, only 10 mg/mL ampicillin added, 7 hours (FIG. 2)) of 18.45%, a survival rate ([3]; YT28, 2.5 mg/mL ampicillin without adding succinic acid, 4 hours) of 68.38% and a survival rate ([3]; YT28, 5 mg/mL ampicillin without adding succinic acid, 4 hours) of 56.25%. It also gave a survival rate ([3]; YT28, 10 mg/mL ampicillin without adding succinic acid, 4 hours (FIG. 1)) of 35.87%, a survival rate ([3]; YT28, 10 mg/mL ampicillin without adding succinic acid, 4 hours (FIG. 3)) of 86.21% and a survival rate ([3]; YT28, 20 mg/mL ampicillin without adding succinic acid, 4 hours) of 27.09%. It also gave a survival rate ([3]; YT28, only 10 mg/mL ampicillin added, 1 hour (FIG. 2)) of 96.79%, a survival rate ([3]; YT28, only 10 mg/mL ampicillin added, 4 hours (FIG. 2)) of 26.79% and a survival rate ([3]; YT28, only 10 mg/mL ampicillin added, 7 hours (FIG. 2)) of 14.18%.
